The values that follow come from patent US20260216115A1, “TRETINOIN-CONTAINING COMPOSITION, PREPARATION METHOD AND USE THEREOF” (NANJING INDETEK LABORATORY CO., LTD., priority 2022, published 2026).

Data set [1] is described as follows: Complex formation at different molar ratios, state at room temperature. Format: physicochemical. Here is the method:
Referring to the preparation process in 1.2.1, complexes were prepared using tretinoin and diethanolamine at different ratios (as shown in the table below).
Referring to the preparation process in 1.2 in Example 1, diethanolamine was replaced with triethanolamine, and complexes were prepared using tretinoin and triethanolamine at different ratios (as shown in the table below).

Data set [2] is described as follows: Water solubility/water dilution stability of tretinoin complexes. Format: physicochemical. As to conditions: water added until the solution appeared turbid. Here is the method:
Weighing was performed, and calculation was performed to obtain the limiting water content of the complexes.

The conditions of data set [3]: 2020 edition of Chinese Pharmacopoeia (Part II); cited from earlier work.
The nature of data set [4]: Differential scanning calorimetry (DSC, mDSC). Format: physicochemical. (In general: In DSC, transitions show as peaks or steps in heat flow.)
Data set [5] is described as follows: Liquid nitrogen freezing test. The class given is physicochemical. To be noted: frozen about 1 min in liquid nitrogen, rewarmed to room temperature (about 22° C.). Here is the method: After freezing for about 1 min, the sample was taken out, yielding a reddish-brown transparent solid (hard and brittle). […] The experimental process was as follows: freezing with the spoon, fragmenting, and then melting

A short description of data set [6]: Dynamic moisture sorption (DVS) with PLM before and after. Format: physicochemical.
Data set [7] in a line: Crystallization induction: cooling test. Format: physicochemical. As to conditions: 3 days. Here is the method:
About 40 mg of 2 [DEA][RA] was dissolved in the respective solvent at 50° C., a clear solution was obtained and divided equally in 2 groups. After cooling according to the respective procedure, and equilibrating at low temperature for 3 days, no solid form substance was obtained.

Data set [8] in a line: Compatibility of gel matrix and complex. The class given is physicochemical. As to conditions: 0.17% (0.1% in terms of RA) added to the Carbopol 980 gel matrix.
Data set [9] can be described thus: Anti-solvent addition test. The class given is physicochemical. As to conditions: room temperature, about 4 days. Here is the method: The corresponding volume of good solvent was added to an appropriate amount of 2 [DEA][RA] to obtain a clear solution. If there were two corresponding anti-solvents, the clear solution was divided into two parts. At room temperature (about 22° C.), the anti-solvent was slowly added to the clear solution with stirring until solid precipitation was observed (the maximum volume of anti-solvent added was 1.5 mL). If the solid precipitation was observed, the addition of anti-solvent was stopped. After about 4 days of stirring at room temperature, a clear solution was obtained or oiling-out phenomenon was observed, without solid form substance obtained.

Data set [10] can be described thus: Solubility of the complex in different medium systems (oily mediums). Format: physicochemical. The text has this: 6.1 Study on Solubility of the Tretinoin-Alcoholamine Compound Complex in Different Medium Systems
Where [11] appears, read: tretinoin-triethanolamine complexes, molar ratio TEA:RA 7:1 to 10:1.
Where [12] appears, read: tretinoin-diethanolamine complexes, molar ratio [DEA]:[RA] 2:1 to 10:1.

On to `CC1=C(/C=C/C(C)=C/C=C/C(C)=C/C(=O)O)C(C)(C)CCC1.OCCN(CCO)CCO.OCCN(CCO)CCO.OCCN(CCO)CCO.OCCN(CCO)CCO.OCCN(CCO)CCO.OCCN(CCO)CCO.OCCN(CCO)CCO.OCCN(CCO)CCO.OCCN(CCO)CCO.OCCN(CCO)CCO` [10[TEA][RA]], for which, in [1] (setting [11]), the “State at room temperature” value is “Reddish-brown clear liquid”.

Turning to `CC1=C(/C=C/C(C)=C/C=C/C(C)=C/C(=O)O)C(C)(C)CCC1.OCCNCCO.OCCNCCO.OCCNCCO.OCCNCCO.OCCNCCO.OCCNCCO.OCCNCCO.OCCNCCO.OCCNCCO.OCCNCCO` [10[DEA][RA]], the “State at room temperature” value in data set [1] (setting [12]) is on record as “Reddish-brown clear liquid”.

Regarding `CC1=C(/C=C/C(C)=C/C=C/C(C)=C/C(=O)O)C(C)(C)CCC1.OCCNCCO.OCCNCCO.OCCNCCO.OCCNCCO.OCCNCCO.OCCNCCO` [6[DEA][RA]], the “State at room temperature” value in data set [1] (setting [12]) was “Reddish-brown clear liquid”.

In the case of `CC1=C(/C=C/C(C)=C/C=C/C(C)=C/C(=O)O)C(C)(C)CCC1.OCCN(CCO)CCO.OCCN(CCO)CCO.OCCN(CCO)CCO.OCCN(CCO)CCO.OCCN(CCO)CCO.OCCN(CCO)CCO.OCCN(CCO)CCO.OCCN(CCO)CCO.OCCN(CCO)CCO` [9[TEA][RA]], the “State at room temperature” value in data set [1] (setting [11]) was “Reddish-brown clear liquid”.

For `CC1=C(/C=C/C(C)=C/C=C/C(C)=C/C(=O)O)C(C)(C)CCC1.CC1=C(/C=C/C(C)=C/C=C/C(C)=C/C(=O)O)C(C)(C)CCC1.OCCNCCO.OCCNCCO.OCCNCCO.OCCNCCO.OCCNCCO` [2.5[DEA][RA]], in data set [1] (setting [12]), the “State at room temperature” value is “Reddish-brown clear liquid”. Further, the “Maximum water content (water dilution stability)” value (from here on “Maximum water content”) in [2] was 92.5%.

Consider `CC1=C(/C=C/C(C)=C/C=C/C(C)=C/C(=O)O)C(C)(C)CCC1.OCCNCCO.OCCNCCO.OCCNCCO.OCCNCCO.OCCNCCO` [5[DEA][RA]], for which the “State at room temperature” value in data set [1] (setting [12]) is listed as “Reddish-brown clear liquid”.

Turning to `CC1=C(/C=C/C(C)=C/C=C/C(C)=C/C(=O)O)C(C)(C)CCC1.OCCN(CCO)CCO.OCCN(CCO)CCO.OCCN(CCO)CCO.OCCN(CCO)CCO.OCCN(CCO)CCO.OCCN(CCO)CCO.OCCN(CCO)CCO.OCCN(CCO)CCO` [8[TEA][RA]], the “State at room temperature” value is given as “Reddish-brown clear liquid” in data set [1] (setting [11]) and “reddish-brown transparent liquid” in data set [1] (tretinoin-triethanolamine complexes, molar ratio TEA:RA 7:1 to 10:1, listed as 8 [TEA][RA]).

Consider `CC1=C(/C=C/C(C)=C/C=C/C(C)=C/C(=O)O)C(C)(C)CCC1.OCCNCCO.OCCNCCO.OCCNCCO` [3[DEA][RA]], for which the “State at room temperature” value in [1] (setting [12]) is “Reddish-brown clear liquid”. In addition, in data set [2], the “Maximum water content” value came to 93.7%.

As for `CC1=C(/C=C/C(C)=C/C=C/C(C)=C/C(=O)O)C(C)(C)CCC1` [tretinoin], in data set [3], the “Solubility in water” value is “extremely insoluble in water”.

As to `CC1=C(/C=C/C(C)=C/C=C/C(C)=C/C(=O)O)C(C)(C)CCC1.OCCNCCO.OCCNCCO.OCCNCCO.OCCNCCO.OCCNCCO.OCCNCCO.OCCNCCO` [7[DEA][RA]], in data set [1] (setting [12]), the “State at room temperature” value is on record as “Reddish-brown clear liquid”.

On to `CC1=C(/C=C/C(C)=C/C=C/C(C)=C/C(=O)O)C(C)(C)CCC1.OCCNCCO.OCCNCCO.OCCNCCO.OCCNCCO.OCCNCCO.OCCNCCO.OCCNCCO.OCCNCCO.OCCNCCO` [9[DEA][RA]], for which the “State at room temperature” value in [1] (setting [12]) is “Reddish-brown clear liquid”.

For `CC1=C(/C=C/C(C)=C/C=C/C(C)=C/C(=O)O)C(C)(C)CCC1.OCCNCCO.OCCNCCO` [2[DEA][RA]], in [4] (−25° C. to 25° C.), the “mDSC glass transition temperature” value is on record as “no glass transition temperature is observed”. In addition, in [4] (−25° C. to 40° C.), the “DSC exothermic or endothermic signals” value is “no exothermic or endothermic signals”. Further, the “Liquid nitrogen freezing test result upon rewarming” value in data set [5] is listed as “the sample melted immediately”. Further, the “Hygroscopicity (DVS)” value in data set [6] (25° C., 0% RH-95% RH-0% RH) is reported as “certain hygroscopic properties”. Also, the “Crystalline particles by PLM before and after DVS” value in data set [6] (room temperature) is listed as “no crystalline particles”. Moreover, the Cooling test results in data set [7] (test-A1, n-propanol, 50° C.→5° C.) is “Clear”; in data set [7] (test-A2, n-propanol, 50° C.→−20° C.), “Clear”; in [7] (test-C1, 1,4-dioxane, 50° C.→5° C.) it was “Clear”; in data set [7] (test-C2, 1,4-dioxane, 50° C.→−20° C., *melting immediately upon taking out), “Frozen, yellow opaque*”; in data set [7] (test-D1, DMSO, 50° C.→5° C.), “Clear”. Further, the “Compatibility of complex with gel matrix” value in data set [8] is on record as “precipitation of yellow solids”. The “State at room temperature” value in data set [1] (setting [12]) is “Reddish-brown clear liquid”. Further, the “Anti-solvent addition test results” value in [9] (test-A, good solvent DMSO, anti-solvent ACN 1.5 mL) is recorded as “Clear”; in [9] (test-B1, good solvent n-propanol, anti-solvent ACN 1.5 mL), “Clear”; in data set [9] (test-B2, good solvent n-propanol, anti-solvent n-heptane 1.5 mL), “Clear”; in [9] (test-D1, good solvent THF, anti-solvent ACN 1.5 mL) it was “Clear”; in [9] (test-E1, good solvent IPA, anti-solvent ACN 1.5 mL), “Clear”. In addition, the “Solubility in oily medium” value in data set [10] (Isopropyl myristate), in data set [10] (Laurocapram), in data set [10] (Medium-chain triglyceride) and in data set [10] (Soybean oil) was “Insoluble” throughout. Also, the “Maximum water content” value in data set [2] is on record as 91.4%.

With `CC1=C(/C=C/C(C)=C/C=C/C(C)=C/C(=O)O)C(C)(C)CCC1.OCCNCCO.OCCNCCO.OCCNCCO.OCCNCCO` [4[DEA][RA]], the “State at room temperature” value in data set [1] (setting [12]) is reported as “Reddish-brown clear liquid”. For the same compound, the “Maximum water content” value in data set [2] is recorded as 94.1%.

For `CC1=C(/C=C/C(C)=C/C=C/C(C)=C/C(=O)O)C(C)(C)CCC1.OCCNCCO.OCCNCCO.OCCNCCO.OCCNCCO.OCCNCCO.OCCNCCO.OCCNCCO.OCCNCCO` [8[DEA][RA]], in [1] (setting [12]), the “State at room temperature” value is on record as “Reddish-brown clear liquid”.
